What is called IC50 is the concentration at which inhibition is half-maximal. For orientation: EC50 means the concentration at which the effect is half-maximal.

One assay concerns CDK8. Also noted: method as in AstraZeneca data repository. The settings on record: median log of IC50/EC50/Ki/Kd annotations, highest value; ref AstraZeneca data repository; cited from earlier work.
In assay [1] the test system is lipid droplet accumulation in TG/FA-treated hiPSC-Hep. As to the kind of experiment: hiPSC-Hep ER-stress (TG/FA) induced lipid droplet accumulation high-content assay, integrated spot signal (BODIPY 493/503). Type of assay: cell-based, human. As to conditions: Homo sapiens; for IC50: 10-point dose-response, pre-treatment then TG/FA 18 h, read-out: IC50, inhibition of lipid accumulation (integrated spot signal); for EC50: Figure S5 dose-response, read-out: EC50, inhibition of lipid droplet accumulation (black line: ISS). The protocol: Cryopreserved hiPSC-derived hepatocytes (iCell Hepatocytes 2.0; Cellular Dynamics International Madison, WI) plated at a density of 36 K/well in 384-well on collagen I coated Corning Biocoat 384-well plates (BD Biosciences, 101306), were cultured to promote hepatic differentiation and maturation into hepatic-like cells as previously described. Hepatocytes were plated according to the manufacturer’s protocol in a volume of 50 µL/well using BioTek^TM Microflo^TM select dispenser (#7170011, BioTek Instruments) for high-throughput and high-content analysis assay (HT/HCA) drug discovery. After plating cells were cultured according to vendor specifications in a cell culture incubator at 37 °C, 5% CO2 for 3–4 h. Then, 40 µL spent medium was aspirated using multi-channel automated pipette handling system (Integra ViaFlo 96/384) and replaced with 40 µL (80% exchange) of fresh plating medium. Approximately 24 h post-plating 80% of medium was replaced every day thereafter. At day 5 of differentiation, 40 µL/well spent medium was replaced with maintenance medium (MM) consisting of William’s E medium (Thermo Fisher Scientific) supplemented with 0.1 µM dexamethasone and hepatocyte maintenance supplement pack (Thermo Fisher Scientific) for an additional 2–3 days before HCA. The overview of automated HT system for hiPSC-derived hepatocytes differentiation, staining and image analysis for phenotypic screening is depicted in Figure S2. Primary screening hit confirmation and dose response studies were performed on different batches of hiPSC-derived hepatocytes.
To induce hepatic triglycerides (TAG) accumulation, before staining, cells were treated with 20 μL of 2× FA mixture, consisting of different proportions of oleic acid (OA-BSA, 25 µM, Sigma, #O3008), palmitic acid (PA-BSA, 200 µM, Agilent Technologies, #102720100) and thapsigargin (TG, 1 µM, Abcam, #120286) with a total volume of 40 μL/well. The TG/FA mixture was dispensed with BioTek^TM Microflo^TM select dispenser (#7170011, BioTek Instruments) and incubated for 18 h. Next, to label TAG accumulation stored into cytoplasmic lipid droplets, upon treatment, living cells were washed two times with warm Dulbecco’s Phosphate-Buffered Saline 1X (PBS, Corning, #21-031CV) with a handheld 384-channel electronic pipette device and then incubated for 15 min with a lipophilic dye, BODIPY 493/503 (8 ug/mL Life technologies, #D3922-green), in PBS at 37 °C. BODIPY (493/503) has become the standard dye utilized by scientists to study lipid droplets in live cells. After three washes with PBS cells were fixed with 4% paraformaldehyde methanol-free (PFA, Electron Microscopy Science, #15710) in PBS for 15 min at room temperature (RT). Cell health was monitored by Hoechst 33342 (10 ug/mL, Molecular Probe, #H21492) staining in PBS for nuclear count. After TAG staining the 384-assay plates were loaded in an automated confocal microscope with Opera High Content Imaging System (PerkinElmer, Waltham, MA, USA). Dyes were excited and images were captured on the Hoechst 3342 and Alexa Fluor 488 channels and signals were collected with a long pass filter 410 and 505 nm, for nuclei and TAG, respectively, at objective 20× air objective for HCA. To capture enough cells (>600) for the analysis, eight fields per well were imaged. Hoechst 33342 fluorescence was used to identify the nuclear region and cell counts. To assess intracellular fat deposits, BODIPY 493/503 fluorescence intensity was measured inside the cytoplasm region.
For the HCA screen, compounds tested for their inhibitory effects, were used as single dose at a 10 μM final concentration of compound in DMSO in each well (0.1% DMSO) in 20 μL of maintenance medium. Prior to compound addition, 30 µL/well of medium was removed from hiPSC-Hep cells screening plates with ViaFlo ([…]). Pre-spotted 80 nL of 10 mM compound were diluted to 20 μM (0.2% DMSO) in 40 μL of maintenance medium in the source 384-well plate. […]

In another assay the test system is CDK2. Also noted: method as in AstraZeneca data repository. As to conditions: median log of IC50/EC50/Ki/Kd annotations, highest value; ref AstraZeneca data repository; cited from earlier work.
A further assay relates to CDK1. Also noted: method as in AstraZeneca data repository. As to conditions: median log of IC50/EC50/Ki/Kd annotations, highest value; ref AstraZeneca data repository; cited from earlier work.
The subject of a further assay is CDK9. Also noted: method as in AstraZeneca data repository. As to conditions: median log of IC50/EC50/Ki/Kd annotations, highest value; ref AstraZeneca data repository; cited from earlier work.
Another assay relates to CDK7. Also noted: method as in AstraZeneca data repository. The settings on record: median log of IC50/EC50/Ki/Kd annotations, highest value; ref AstraZeneca data repository; cited from earlier work.
For another assay, the system named is CDK14. Also noted: method as in AstraZeneca data repository. The settings on record: median log of IC50/EC50/Ki/Kd annotations, highest value; ref AstraZeneca data repository; cited from earlier work.
A further assay deals with CDK6. Also noted: method as in AstraZeneca data repository. As to conditions: median log of IC50/EC50/Ki/Kd annotations, highest value; ref AstraZeneca data repository; cited from earlier work.
A further assay has as its system CDK12. Also noted: method as in AstraZeneca data repository. The settings on record: median log of IC50/EC50/Ki/Kd annotations, highest value; ref AstraZeneca data repository; cited from earlier work.
A further assay relates to CDK5. Also noted: method as in AstraZeneca data repository. The settings on record: median log of IC50/EC50/Ki/Kd annotations, highest value; ref AstraZeneca data repository; cited from earlier work.

Turning to `Cc1ncc(-c2nc(Nc3ccc(N4CCN(C(=O)CO)CC4)cc3)ncc2F)n1C(C)C` [C3], in the assay on CDK8, the “pXC50 CDK8” value is on record as 5.60. Moreover, in assay [1], the IC50 came to 0.32 µM and the EC50 is 0.32 µM. For the same compound, the “pXC50 CDK2” value in the assay on CDK2 is listed as 8.24. For the same compound, the “pXC50 CDK1” value in the assay on CDK1 is 7.61.
Consider `CNC(=O)c1nn(C)c2c1C(C)(C)Cc1cnc(Nc3ccc(N4CCN(C)CC4)cc3)nc1-2` [C16, Milciclib], for which, in [1], the IC50 came to 4.6 µM and the EC50 amounted to 4.6 µM. Also, the “pXC50 CDK9” value in the assay on CDK9 was 5.60. In addition, the “pXC50 CDK7” value in the assay on CDK7 was 7.51. Further, the “pXC50 CDK14” value in the assay on CDK14 is 6.13. The “pXC50 CDK6” value with CDK6 is on record as 7.61. The “pXC50 CDK2” value in the assay with CDK2 is 7.60. Further, the “pXC50 CDK12” value with CDK12 was 5.34. Also, in the assay on CDK5, the “pXC50 CDK5” value was 6.58. Also, the “pXC50 CDK1” value with CDK1 was 6.84.
